Results reported in patent US8318223B2, “Method for producing modified milk” (Ajinomoto Co., Inc., priority 2008, dated 2012).
Read-outs that look alike come from different tables or passages of the source.

Target: T1, PG (Chryseobacterium proteolyticum, UniProt Q9AQQ8)
T1 construct: made in house
T1 sequence (Q9AQQ8 136-320): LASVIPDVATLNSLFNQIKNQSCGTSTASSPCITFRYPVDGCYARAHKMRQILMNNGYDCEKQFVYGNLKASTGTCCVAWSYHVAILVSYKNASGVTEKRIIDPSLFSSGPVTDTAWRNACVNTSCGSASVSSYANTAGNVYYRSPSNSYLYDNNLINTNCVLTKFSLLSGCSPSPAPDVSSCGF
Assay type: biochemical
Protocol: Calcium chelating materials were added to LTLT sterilized milk (66° C., 30 minutes: Takanashi low temperature sterilized milk) properly. The reactivity of PG with each milk sample was measured as follows. To each milk sample was added 0.4 U/ml (corresponding to about 12 u per 1 g of milk protein) of PG (a purified product described in Experimental Example 1) and incubated at 50° C. for 60 minutes. The enzyme reaction was ceased by adding 12% TCA the amount of which is the same as the reacting solution and centrifuged (12,000 rpm, 5° C., 5 minutes) to measure the amount of ammonium in the supernatant using an ammonium quantitative measurement kit, F-kit (Roche).
Alkaline materials were added to LTLT sterilized milk (66° C., 30 minutes: Takanashi low temperature sterilized milk) properly so as to adjust the pH 7 to 8.4. The reactivity of PG with each milk sample was measured as in Example 1.
Glutathione or cysteine (Nacalai Tesque, Inc.) as a thiol-type reducing agent was added to LTLT sterilized milk (66° C., 30 minutes: Takanashi low temperature sterilized milk) properly. The reactivity of PG to each milk was measured as in Example 1. […] By the same manner, the reactivity of PG to milk was measured by adding glutathione yeast extract (AROMILD UG8, Kohjin Co., Ltd.) to milk at different concentrations.

[1] = additive 0.4% in LTLT milk, PG 0.4 U/ml, 50° C., 60 minutes, control 22.1
[2] = additive 0.5% in LTLT milk, PG 0.4 U/ml, 50° C., 60 minutes, control 22.1
[3] = alkaline additive 0.20% in LTLT milk, control (pH 6.67) 13.6
[4] = alkaline additive 0.25% in LTLT milk, control (pH 6.67) 13.6
[5] = alkaline additive […] in LTLT milk, control (pH 6.67) 13.6
[6] = alkaline additive 0.30% in LTLT milk, control (pH 6.67) 13.6

Which “PG reactivity (%)” value (alkaline additive 0.13% in LTLT milk, control (pH 6.67) 13.6) does the source give for `O=C([O-])[O-].[K+].[K+]` [Potassium carbonate] here?
Its value is 62.5%.

For `O=C([O-])CN(CCN(CC(=O)[O-])CC(=O)[O-])CC(=O)[O-].[Na+].[Na+].[Na+].[Na+]` [EDTA, tetrasodium ethylenediaminetetraacetate], which “PG reactivity (%)” value (additive 20 mM in LTLT milk, PG 0.4 U/ml, 50° C., 60 minutes, control 22.1) is on record?
The value was 55.9%.

Which “PG reactivity (%)” value (additive 0.2% in LTLT milk, PG 0.4 U/ml, 50° C., 60 minutes, control 22.1) does the source give for `O=C([O-])CC(O)(CC(=O)[O-])C(=O)[O-].[Na+].[Na+].[Na+]` [Trisodium citrate] here?
The value was 40.5%.

And the “PG reactivity (%)” value [1]?
Its value is 47.3%.

What about the “PG reactivity (%)” value [2] of the same compound?
Its value is 42.8%.

How did the “PG reactivity (%)” value [3] turn out when `O=P([O-])([O-])[O-].[Na+].[Na+].[Na+]` [Trisodium phosphate] was run?
The value was 65.8%.

What about the “PG reactivity (%)” value [4] of the same compound?
The value was 72%.

What about the “PG reactivity (%)” value [5] of the same compound?
Its value is 54.9%.

Which results are given for `O=C([O-])[O-].[Na+].[Na+]` [Sodium carbonate]?
PG reactivity (%) (alkaline additive 0.10% in LTLT milk, control (pH 6.67) 13.6): 61.7%; PG reactivity (%) [3]: 65%; PG reactivity (%) [5]: 72.7%

`O=C([O-])O.[Na+]` [Sodium hydrogen carbonate] was tested. Which “PG reactivity (%)” value [6] did it give?
Its value is 58.1%.

And the “PG reactivity (%)” value (alkaline additive 1.00% in LTLT milk, control (pH 6.67) 13.6)?
The value was 57.8%.

Which “PG reactivity (%)” value [3] does the source give for `N=C(N)NCCC[C@H](N)C(=O)O` [Arg (amino acid), arginine] here?
Its value is 54.1%.

What about the “PG reactivity (%)” value [4] of the same compound?
The value was 67%.

And the “PG reactivity (%)” value [6]?
The value was 76.2%.

And the “PG reactivity (%)” value (alkaline additive 0.40% in LTLT milk, control (pH 6.67) 13.6)?
The value was 75%.

How did the “PG reactivity (%)” value [1] turn out when sodium γ-polyglutamate [γ-PGA] was run?
Its value is 49.8%.

And the “PG reactivity (%)” value [2]?
Its value is 58.1%.

And the “PG reactivity (%)” value (additive 0.75% in LTLT milk, PG 0.4 U/ml, 50° C., 60 minutes, control 22.1)?
The value was 79.2%.

And the “PG reactivity (%)” value (additive 1% in LTLT milk, PG 0.4 U/ml, 50° C., 60 minutes, control 22.1)?
Its value is 96.1%.
